# Activity calls are given as the source filed them. The calls are words filed in the database; no cut-off is given here.
# Experiments:
# [1] = system: Mus musculus; test: Antiinflammatory activity in cerulein-induced CD-1 mouse assessed as reduction in lung inflammation at 10 mg/kg, ip administered on 0.5 and 2.5 hrs post first cerulein administration measured after 6 hrs by Hematoxylin and eosin staining based analysis; assay type: functional, organism-based
# [2] = system: Mus musculus; test: Antiinflammatory activity in cerulein-induced CD-1 mouse assessed as reduction in serum ALT at 10 mg/kg, ip administered on 0.5 and 2.5 hrs post first cerulein administration measured after 6 hrs by Hematoxylin and eosin staining based analysis; assay type: functional, organism-based
# [3] = target: T1, Prostaglandin G/H synthase 2 (Mus musculus, UniProt Q05769); test: Inhibition of COX-2 in LPS-stimulated mouse J774 cells assessed as inhibition of PGE2 production pretreated for 2 hrs followed by stimulation with LPS measured after 24 hrs by ELISA analysis; assay type: cell-based
# T1 sequence (Q05769 whole entry): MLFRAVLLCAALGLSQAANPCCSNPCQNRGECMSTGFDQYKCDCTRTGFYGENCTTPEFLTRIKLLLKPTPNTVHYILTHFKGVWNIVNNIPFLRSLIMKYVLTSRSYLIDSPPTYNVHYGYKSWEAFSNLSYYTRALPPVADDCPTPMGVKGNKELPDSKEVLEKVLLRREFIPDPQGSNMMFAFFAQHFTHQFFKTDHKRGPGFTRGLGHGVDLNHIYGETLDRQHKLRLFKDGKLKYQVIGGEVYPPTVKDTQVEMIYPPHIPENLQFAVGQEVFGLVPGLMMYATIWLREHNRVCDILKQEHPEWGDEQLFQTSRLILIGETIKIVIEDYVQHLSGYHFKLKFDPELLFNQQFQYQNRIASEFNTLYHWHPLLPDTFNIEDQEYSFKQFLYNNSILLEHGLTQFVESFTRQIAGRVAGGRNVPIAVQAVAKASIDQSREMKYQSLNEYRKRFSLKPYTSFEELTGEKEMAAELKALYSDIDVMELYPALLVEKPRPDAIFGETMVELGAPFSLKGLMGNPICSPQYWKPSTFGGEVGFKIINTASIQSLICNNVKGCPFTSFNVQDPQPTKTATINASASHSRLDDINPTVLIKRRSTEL
# [4] = system: Mus musculus; test: Antiinflammatory activity in cerulein-induced CD-1 mouse assessed as reduction of neutrophil numbers at 10 mg/kg, ip administered on 0.5 and 2.5 hrs post first cerulein administration measured after 6 hrs by Hematoxylin and eosin staining based analysis; assay type: functional, organism-based
# [5] = system: Mus musculus; test: Antiinflammatory activity in cerulein-induced CD-1 mouse assessed as reduction in serum AST at 10 mg/kg, ip administered on 0.5 and 2.5 hrs post first cerulein administration measured after 6 hrs by Hematoxylin and eosin staining based analysis; assay type: functional, organism-based
# [6] = system: Mus musculus; test: Antiinflammatory activity in cerulein-induced CD-1 mouse assessed as reduction in lung neutrophilia at 10 mg/kg, ip administered on 0.5 and 2.5 hrs post first cerulein administration measured after 6 hrs by Hematoxylin and eosin staining based analysis; assay type: functional, organism-based
# [7] = system: Mus musculus; test: Antiinflammatory activity in cerulein-induced CD-1 mouse assessed as reduction of edema at 10 mg/kg, ip administered on 0.5 and 2.5 hrs post first cerulein administration measured after 6 hrs by Hematoxylin and eosin staining based analysis; assay type: functional, organism-based
# [8] = system: Mus musculus; test: Antiinflammatory activity in cerulein-induced CD-1 mouse assessed as reduction of cell infiltration at 10 mg/kg, ip administered on 0.5 and 2.5 hrs post first cerulein administration measured after 6 hrs by Hematoxylin and eosin staining based analysis; assay type: functional, organism-based
# [9] = system: Mus musculus; test: Antiinflammatory activity in cerulein-induced CD-1 mouse assessed as reduction in pancreatic injury at 10 mg/kg, ip administered on 0.5 and 2.5 hrs post first cerulein administration measured after 6 hrs by Hematoxylin and eosin staining based analysis; assay type: functional, organism-based
IC50 [3] [µM],Compound,Activity [1],Activity [2],Activity [4],Activity [5],Activity [6],Activity [7],Activity [8],Activity [9]
> 10,CC(C)c1ccc(Cn2ccc3cc(NC(=O)NCC45C[C@H]6C[C@@H](C4)C[C@@H](C5)C6)ccc32)cc1,Active,Active,Active,Active,Active,Active,Active,
,O=C(O)CCCCCCCCCCCNC(=O)NC12CC3CC(CC(C3)C1)C2,,,,,,,,Active
